For one compound, IC50 results are on record in publication PMC8341802 (RSC Chemical Biology, 2021).

For this test, the target named is APOBEC3A (A3A) (Homo sapiens, UniProt P31941). It counts as biochemical.
Sequence of APOBEC3A (A3A) (P31941 whole entry): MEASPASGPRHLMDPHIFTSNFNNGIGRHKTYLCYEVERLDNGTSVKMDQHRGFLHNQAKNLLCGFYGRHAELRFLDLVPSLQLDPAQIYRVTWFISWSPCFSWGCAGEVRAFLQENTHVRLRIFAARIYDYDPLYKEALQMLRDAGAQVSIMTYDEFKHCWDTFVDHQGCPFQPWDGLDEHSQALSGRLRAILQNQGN

Regarding `O=C(O)C1=CC(=C(c2ccc(O)c(C(=O)O)c2)c2ccc(O)c(C(=O)O)c2)C=CC1=O` [MN1, aurintricarboxylic acid], the IC50 (as a rule, the concentration at which inhibition is half-maximal) came to 40.5 µM.
